Source: patent publication US20160108381A1, “DNA POLYMERASES AND MUTANTS THEREOF” (LIFE TECHNOLOGIES CORPORATION, priority 2001, published 2016)

Key:
Assay in all cases: Steady-state kinetics, DNA- and RNA-dependent polymerase activity
Assay type in all cases: biochemical
[1] = target: SuperScript II reverse transcriptase (SSII, SS II RT), a modified M-MLV reverse transcriptase (Moloney murine leukemia virus isolate Shinnick, UniProt P03355)
Procedure: (§1) Thermotoga neapolitana (Tne) DNA polymerase mutated to eliminate 3′ to 5′ and 5′ to 3′ exonuclease activity was cloned, engineered and purified as described in U.S. Pat. No. 6,306,588. SuperScript II reverse transcriptase (SS II RT) was from Invitrogen Corporation, Carlsbad, Calif.
(§2) Steady-state kinetic measurements.
(§3) The catalytic rate constant kcat and the Michaelis constant KM were determined for both the DNA-dependent and RNA-dependent polymerase activities for the polypeptides of the invention and these parameters were compared to those of Tne DNA polymerase enzyme and […]™ II reverse transcriptase. […]

[2] = target: T1, Thermotoga neapolitana (Tne) DNA polymerase, mutated to eliminate 3′ to 5′ and 5′ to 3′ exonuclease activity (Thermotoga neapolitana, UniProt B9K7T2)
T1 construct: mutated to eliminate 3'-5' and 5'-3' exonuclease activity as in US 6,306,588 (recalled, unsure: D137A and D323A)
Procedure: as §1, §2, §3

[3] = target: T2, Bacillus caldolyticus EA1.3 (B.EA1) DNA polymerase, SEQ ID NO:20 ([Bacillus] caldolyticus, UniProt Q6X9S1); conditions: Table 40; dTTP; 55 °C
T2 sequence (Q6X9S1 with tags, fused parts or gaps): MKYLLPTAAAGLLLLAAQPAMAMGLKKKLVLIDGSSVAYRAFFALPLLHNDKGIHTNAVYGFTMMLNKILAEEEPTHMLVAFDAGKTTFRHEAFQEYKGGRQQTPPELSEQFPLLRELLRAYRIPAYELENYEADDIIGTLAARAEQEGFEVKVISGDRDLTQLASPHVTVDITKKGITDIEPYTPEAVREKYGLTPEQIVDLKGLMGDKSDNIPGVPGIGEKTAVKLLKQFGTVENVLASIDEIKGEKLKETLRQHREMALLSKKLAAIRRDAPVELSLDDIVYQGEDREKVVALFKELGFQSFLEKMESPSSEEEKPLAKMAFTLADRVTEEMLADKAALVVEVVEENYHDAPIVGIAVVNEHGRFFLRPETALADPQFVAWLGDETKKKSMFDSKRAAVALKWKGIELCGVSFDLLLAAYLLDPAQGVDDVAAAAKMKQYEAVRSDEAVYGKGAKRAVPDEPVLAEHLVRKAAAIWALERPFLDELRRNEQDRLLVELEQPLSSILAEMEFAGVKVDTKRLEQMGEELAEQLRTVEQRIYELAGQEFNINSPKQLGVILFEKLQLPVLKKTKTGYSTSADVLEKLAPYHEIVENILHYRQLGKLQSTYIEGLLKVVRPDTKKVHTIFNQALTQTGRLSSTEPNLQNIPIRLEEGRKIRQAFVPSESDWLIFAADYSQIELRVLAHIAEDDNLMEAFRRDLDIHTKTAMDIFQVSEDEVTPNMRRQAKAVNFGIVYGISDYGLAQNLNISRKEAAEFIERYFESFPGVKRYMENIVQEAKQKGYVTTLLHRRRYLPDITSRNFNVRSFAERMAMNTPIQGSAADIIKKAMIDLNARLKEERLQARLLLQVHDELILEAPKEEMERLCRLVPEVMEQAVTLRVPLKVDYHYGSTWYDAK
Procedure: Purification of CA2, B.EA1, Rt41A, Dth, Tok13B, Tok7B, and Rt69B DNA polymerase. E. coli cells (BL21SI, Invitrogen Corporation, Carlsbad, Calif.) bearing the plasmid pET26B with the gene for CA2, B.EA1, Rt41A, or Dth DNA polymerase were grown in 2.8-1 Fembach flasks in LB broth containing no salt and 50 μg/ml kanamycin at 37° C. After the culture reached an A590 of 1.2, expression of DNA polymerase was induced with 0.3 M NaCl for 3 hr. Cells were harvested by centrifugation and stored at −70° C. E. coli cells (BL21AI) bearing the plasmid pET14B with the gene for Tok13B, Tok7B, or RT69B DNA polymerase were grown in 2.8-1 Fembach flasks in LB broth containing 50 μg/ml ampicillin at 37° C. After the culture reached an A590 of 1.0, expression of DNA polymerase was induced by the addition of 0.2% arabinose for 3 hr. Cells were harvested by centrifugation and stored at −70° C.
as §2

[4] = Table 34, RNA template, 2 mM MgCl2, 45 °C per footnote
[5] = read-out: Km RNA (dTTP), Table 34, RNA template, 2 mM MgCl2, 45 °C per footnote

T1 sequence (B9K7T2 entry or part of it, stated change not applied): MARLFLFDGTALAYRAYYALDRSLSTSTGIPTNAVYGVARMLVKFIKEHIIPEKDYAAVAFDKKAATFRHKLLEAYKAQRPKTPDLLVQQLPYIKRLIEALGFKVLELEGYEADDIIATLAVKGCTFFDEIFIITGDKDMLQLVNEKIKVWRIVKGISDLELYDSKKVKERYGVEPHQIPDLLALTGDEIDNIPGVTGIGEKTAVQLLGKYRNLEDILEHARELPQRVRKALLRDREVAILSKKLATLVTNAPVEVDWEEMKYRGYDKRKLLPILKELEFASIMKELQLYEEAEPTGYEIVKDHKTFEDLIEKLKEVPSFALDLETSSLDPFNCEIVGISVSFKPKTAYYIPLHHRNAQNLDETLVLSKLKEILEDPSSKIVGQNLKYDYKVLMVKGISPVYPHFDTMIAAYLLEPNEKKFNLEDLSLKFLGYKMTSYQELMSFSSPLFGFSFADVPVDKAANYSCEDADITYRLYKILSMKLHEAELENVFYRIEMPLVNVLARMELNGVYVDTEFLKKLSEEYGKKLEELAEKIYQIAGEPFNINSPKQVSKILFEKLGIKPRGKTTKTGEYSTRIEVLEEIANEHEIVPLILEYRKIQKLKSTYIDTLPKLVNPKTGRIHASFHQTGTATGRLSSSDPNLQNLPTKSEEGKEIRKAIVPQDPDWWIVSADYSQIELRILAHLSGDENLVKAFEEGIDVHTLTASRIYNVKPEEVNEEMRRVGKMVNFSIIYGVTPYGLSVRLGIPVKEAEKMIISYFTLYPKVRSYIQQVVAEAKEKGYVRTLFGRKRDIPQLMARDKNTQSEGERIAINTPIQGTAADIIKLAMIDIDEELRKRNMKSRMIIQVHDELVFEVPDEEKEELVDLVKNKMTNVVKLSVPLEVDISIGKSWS

Cc1cn([C@H]2C[C@H](O)[C@@H](COP(=O)(O)OP(=O)(O)OP(=O)(O)O)O2)c(=O)[nH]c1=O [dTTP]
Kcat RNA (dTTP) [1, 4]: 14.5 s⁻¹
kCAT Ratio (RNA/DNA) ([1]; Table 40, 37 °C, RNA-DNA with dTTP over DNA-DNA with dGTP): 2.8
kCAT RNA-DNA ([1]; Table 40, (rA)250•(dT) template-primer, dTTP, 37 °C, mean ± SD): 45 ± 18 s⁻¹
Km [1, 5]: 17 µM
Kcat RNA (dTTP) [2, 4]: 0.094 s⁻¹
kCAT Ratio (RNA/DNA) ([2]; Table 40, 72 °C, RNA-DNA with dTTP over DNA-DNA with dGTP): 0.002
kCAT RNA-DNA ([2]; Table 40, (rA)250•(dT)40, dTTP, 72 °C, mean ± SD): 0.2 ± 0.04 s⁻¹
Km [2, 5]: 37 µM
kCAT Ratio (RNA/DNA) [3]: 0.59
